Reference: US6680054B1 (priority 1996, dated 2004)

Tests used:
influenza strain G70C = type: cell-based
[1] = tested on: NWS/G70C influenza A virus

| Substance | Lowest Concentration (μM of GG167 units) that Inhibited Agglutination, G70C (influenza strain G70C) [µM] | amount of virus clearly detected [1] | compound concentration giving the best result [1] [µM] | detection signal at higher concentrations of compound [1] | detection signal at lower concentrations [1] |
| --- | --- | --- | --- | --- | --- |
| Fetuin | 0.73 | – | – | – | – |
| GG167-Bovine Serum Albumin-Biotin conjugate [Compound 3a] | – | 10^6 pfu | 0.1 | the signal was weaker | the detection signal was also weaker |
